Experimental data from patent US9890185B2, “Urea derivatives useful as kinase inhibitors” (Respivert Limited, priority 2013, dated 2018).

Columns and labels:
HT29 cells = experiment: IL-1β-induced IL-8 release in HT29 cells (assay d); type: cell-based; conditions: Homo sapiens, HT-29; IL-1β-stimulated HT29 cells; read-out: IC50 Values for Inhibition of Cytokine Release, HT29 cells IL-8
Experimental: HT29 cells, a human colon adenocarcinoma cell line, are plated in a 96 well plate (24 hrs) and pre-treated with compounds at the desired concentration for 2 hours before addition of 5 ng/mL of IL-1β (Abcam) for 24 hours. Supernatants are harvested for IL-8 quantification by Sandwich ELISA (Duo-set, R&D System). The IC50 is determined from the dose response curve.

PBMCs [1] = experiment: Cell mitosis assay in PBMCs (assay g); type: cell-based; conditions: Homo sapiens, PBMC, test compound 5 μg/mL
Summary of the method: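 Metaphase arrest with 0.1 μg/mL demecolcine during the final 2 hr of a 20 hr compound exposure, which follows 48 hr of 2% PHA stimulation of healthy-donor human PBMCs. Mitotic lymphocytes counted by flow cytometry (anti-phospho-histone 3 plus propidium iodide). Inhibition expressed relative to 0.5% DMSO.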

Syk = Syk (Homo sapiens (Human), UniProt P43405); experiment: Syk enzyme inhibition (FRET, Z-LYTE); type: biochemical
Summary of the method: (§1)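 Z-LYTE FRET read-out uses protease cleavage of unphosphorylated peptide, and the donor/acceptor ratio reflects phosphorylation. Kinase stocks (c-Src 3000, Syk 2000 ng/mL) were preincubated 2 hr RT with compound stocks of 0.004–4 μg/mL. Peptide and ATP solutions (c-Src 800 μM, Syk 60 μM) were then added for 1 hr. IC50 was taken from concentration-response.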

PBMCs [2] = experiment: IL-2 release in CD3/CD28 stimulated PBMC cells (assay c); type: cell-based; conditions: Homo sapiens, read-out: IC50 Values for Inhibition of Cytokine Release, PBMCs IL-2
Summary of the method: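 Healthy-donor PBMCs (density-gradient isolated) stimulated on plates pre-coated with anti-CD3 (0.3 μg/mL) and anti-CD28 (3 μg/mL), with compound, for 3 days under normal culture conditions. IL-2 and IFN gamma in supernatants measured by sandwich ELISA; IC50 from dose-response curve.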

c-Src = c-Src (Homo sapiens (Human), UniProt P12931); experiment: c-Src enzyme inhibition (FRET, Z-LYTE); type: biochemical
c-Src, sequence (P12931 whole entry, looked up): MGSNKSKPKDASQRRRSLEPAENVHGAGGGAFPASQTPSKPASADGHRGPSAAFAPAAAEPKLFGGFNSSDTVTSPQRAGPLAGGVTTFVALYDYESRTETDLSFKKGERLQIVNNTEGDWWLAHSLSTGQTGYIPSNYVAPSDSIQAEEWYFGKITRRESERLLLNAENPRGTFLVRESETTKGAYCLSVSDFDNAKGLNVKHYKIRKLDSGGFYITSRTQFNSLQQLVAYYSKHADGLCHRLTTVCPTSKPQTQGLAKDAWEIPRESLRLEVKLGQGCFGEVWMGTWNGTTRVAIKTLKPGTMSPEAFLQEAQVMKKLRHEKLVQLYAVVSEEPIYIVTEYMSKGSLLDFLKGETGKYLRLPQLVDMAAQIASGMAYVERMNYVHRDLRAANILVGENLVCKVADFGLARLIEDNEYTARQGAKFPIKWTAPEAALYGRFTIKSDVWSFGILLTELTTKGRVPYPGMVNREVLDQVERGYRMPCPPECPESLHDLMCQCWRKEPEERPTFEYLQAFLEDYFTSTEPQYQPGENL
Summary of the method: as §1

| Structure (SMILES) | IC50 (HT29 cells) [nM] | IC50 (Syk) [nM] | IC50 (c-Src) [nM] | inhibition at 5 µg/mL (PBMCs [1]) [%] | IC50 (PBMCs [2]) [nM] |
| --- | --- | --- | --- | --- | --- |
| COCCOCCOCCOc1cc(Nc2cc(Oc3ccc(NC(=O)Nc4cc(C(C)(C)C)cc(CS(C)(=O)=O)c4OC)c4ccccc34)ccn2)cc(OC)c1 [15(a), 1-(5-(tert-butyl)-2-methoxy-3-((methylsulfonyl)methyl)phenyl)-3-(4-((2-((3-methoxy-5-(2-(2-(2-methoxyethoxy)ethoxy)ethoxy)phenyl)amino)pyridin-4-yl)oxy)naphthalen-1-yl)urea] | 4.2 | 134 | 28 | 56.8 | 43.2 |
| COc1c(CC(N)=O)cc(C(C)(C)C)cc1NC(=O)Nc1ccc(Oc2ccnc(Nc3cc(C)cc(C)c3)c2)c2ccccc12 [38(f), 2-(5-(tert-Butyl)-3-(3-(4-((2-((3,5-dimethylphenyl)amino)pyridin-4-yl)oxy)naphthalen-1-yl)ureido)-2-methoxyphenyl)acetamide] | 4.8 | 837 | 69 | 37.8 | 75.8 |
| C#Cc1cc(Nc2cc(Oc3ccc(NC(=O)Nc4cc(C(C)(C)C)cc(P(C)(C)=O)c4OC)c4ccccc34)ccn2)cc(C(=O)NCCOCCOCCOC)c1 [Example 3, 3-((4-((4-(3-(5-(tert-Butyl)-3-(dimethylphosphoryl)-2-methoxyphenyl)ureido)naphthalen-1-yl)oxy)pyridin-2-yl)amino)-5-ethynyl-N-(2-(2-(2-methoxyethoxy)ethoxy)ethyl)benzamide] | 14.5 | > 1220 | 38 | 29.4 | 181 |
| COCCOCCOCCOc1cc(Nc2nccc(Oc3ccc(NC(=O)Nc4cc(C(C)(C)C)cc(OCP(C)(C)=O)c4OC)c4ccccc34)n2)cc(OC)c1 [Example 6, 1-(5-(tert-Butyl)-3-((dimethylphosphoryl)methoxy)-2-methoxyphenyl)-3-(4-((2-((3-methoxy-5-(2-(2-(2-methoxyethoxy)ethoxy)ethoxy)phenyl)amino)pyrimidin-4-yl)oxy)naphthalen-1-yl)urea] | 5.3 | 58 | 16 | 52.4 |  |
| COCCOCCOCCOc1cc(Nc2cc(Oc3ccc(NC(=O)Nc4cc(C(C)(C)C)cc(P(C)(C)=O)c4)c4ccccc34)ccn2)cc(OC)c1 [Example 10, 1-(3-(tert-Butyl)-5-(dimethylphosphoryl)phenyl)-3-(4-((2-((3-methoxy-5-(2-(2-(2-methoxy-ethoxy)ethoxy)ethoxy)phenyl)amino)pyridin-4-yl)oxy)naphthalen-1-yl)urea] | 8.2 | > 887 | 16 | 39.3 | 88.6 |
| COc1c(NC(=O)Nc2ccc(Oc3ccnc(Nc4ccccc4)c3)c3ccccc23)cc(C(C)(C)C)cc1P(C)(C)=O [Example 11, 1-(5-(tert-Butyl)-3-(dimethylphosphoryl)-2-methoxyphenyl)-3-(4-((2-(phenylamino)pyridin-4-yl)oxy)naphthalen-1-yl)urea] | 15.8 | 186 | 32 | 61 | 80.6 |
| COCCOCCOCCOc1cc(Nc2cc(Oc3ccc(NC(=O)Nc4cc(C(C)(C)C)cc(C(=O)NCCN5CCOCC5)c4OC)c4ccccc34)ccn2)cc(OC)c1 [Example 16, 5-(tert-Butyl)-2-methoxy-3-(3-(4-((2-((3-methoxy-5-(2-(2-(2-methoxyethoxy)ethoxy)ethoxy)-phenyl)amino)pyridin-4-yl)oxy)naphthalen-1-yl)ureido)-N-(2-morpholinoethyl)benzamide] | 1.5 | 93 | 40 | 43.3 | 7.7 |
| COc1c(CS(C)(=O)=O)cc(C(C)(C)C)cc1NC(=O)Nc1ccc(Oc2ccnc(Nc3ccccc3)c2)c2ccccc12 [Example 19, 1-(5-(tert-Butyl)-2-methoxy-3-((methylsulfonyl)methyl)phenyl)-3-(4-((2-(phenylamino)pyridin-4-yl)oxy)naphthalen-1-yl)urea] | 8.6 | 189 | 145 | 36.9 | 257 |

Further compounds by falling IC50 (HT29 cells), results first:

| IC50 (HT29 cells) [nM] | IC50 (Syk) [nM] | IC50 (c-Src) [nM] | Structure (SMILES) | inhibition at 5 µg/mL (PBMCs [1]) [%] | IC50 (PBMCs [2]) [nM] |
| --- | --- | --- | --- | --- | --- |
| 3.7 | 132 | 54 | COc1cccc(Nc2cc(Oc3ccc(NC(=O)Nc4cc(C(C)(C)C)cc(CNC(C)=O)c4OC)c4ccccc34)ccn2)c1 [Example 43, N-(5-(tert-Butyl)-2-methoxy-3-(3-(4-((2-((3-methoxyphenyl)amino)pyridin-4-yl)oxy)naphthalen-1-yl)ureido)benzyl)acetamide] | 62.1 | 30.4 |
| 3.3 | 188 | 33 | COc1cc(Nc2nccc(Oc3ccc(NC(=O)Nc4cc(C(C)(C)C)cc(OCP(C)(C)=O)c4OC)c4ccccc34)n2)cc(OC)c1 [Example 20, 1-(5-(tert-Butyl)-3-((dimethylphosphoryl)methoxy)-2-methoxyphenyl)-3-(4-((2-((3,5-dimethoxyphenyl)amino)pyrimidin-4-yl)oxy)naphthalen-1-yl)urea] | 55 | 10.5 |
| 3 | 201 | 78 | COc1cc(Nc2cc(Oc3ccc(NC(=O)Nc4cc(C(C)(C)C)cc([S+](C)[O-])c4OC)c4ccccc34)ccn2)cc(OC)c1 (stereo not drawn) [Example 40, 1-(5-(tert-Butyl)-2-methoxy-3-(methylsulfinyl)phenyl)-3-(4-((2-((3,5-dimethoxyphenyl)amino)pyridin-4-yl)oxy)naphthalen-1-yl)urea] | 44.3 | 179 |
| 2.2 | 247 | 72 | COc1cccc(Nc2cc(Oc3ccc(NC(=O)Nc4cc(C(C)(C)C)cc([S+](C)[O-])c4OC)c4ccccc34)ccn2)c1 (stereo not drawn) [Example 41, 1-(5-(tert-Butyl)-2-methoxy-3-(methylsulfinyl)phenyl)-3-(4-((2-((3-methoxyphenyl)amino)pyridin-4-yl)oxy)naphthalen-1-yl)urea] | 36 | 184 |
| 2 | 134 | 30 | COCCOCCOCCOc1cc(Nc2cc(Oc3ccc(NC(=O)Nc4cc(C(C)(C)C)cc([S+](C)[O-])c4OC)c4ccccc34)ccn2)cc(OC)c1 (stereo not drawn) [Example 17, 1-(5-(tert-Butyl)-2-methoxy-3-(methylsulfinyl)phenyl)-3-(4-((2-((3-methoxy-5-(2-(2-(2-methoxyethoxy)ethoxy)ethoxy)phenyl)amino)pyridin-4-yl)oxy)naphthalen-1-yl)urea] | 41.3 | 30.5 |
| 1.7 | 53 | 11 | COCCOCCOCCOc1cc(Nc2cc(Oc3ccc(NC(=O)Nc4cc(C(C)(C)C)cc(P(C)(C)=O)c4OC)c4ccccc34)ccn2)cc(OC)c1 [Example 2, 1-(5-(tert-Butyl)-3-(dimethylphosphoryl)-2-methoxyphenyl)-3-(4-((2-((3-methoxy-5-(2-(2-(2-methoxyethoxy)ethoxy)ethoxy)phenyl)amino)pyridin-4-yl)oxy)naphthalen-1-yl)urea] | 58.9 | 76.1 |
